Measurements published in ChEMBL document CHEMBL5625160, “Development of a next-generation endogenous OCT4 inducer and its anti-aging effect in vivo” (Eur J Med Chem, 2023).
pIC50: −log10 of the molar value. Active and inactive are the calls of the source. The calls are words filed in the database; no cut-off is given here.

Tests used:
NCCIT [1] = experiment: Cytotoxicity against human NCCIT cells assessed as inhibition of cell viability measured after 48 hrs by MTT assay; type: functional, cell-based
[2] = Cytotoxicity against human HFF cells assessed as inhibition of cell viability measured after 48 hrs by MTT assay; type: toxicity, cell-based
[3] = biological target: Homeobox protein NANOG (Homo sapiens) (UniProt Q9H9S0); experiment: Induction of NANOG (unknown origin) expressed in human NCCIT reporter cells assessed as increase in luminescence signal measured after 24 hrs by luciferase reporter assay; type: cell-based
[4] = biological target: POU domain, class 5, transcription factor 1 (Homo sapiens) (UniProt Q01860); experiment: Induction of OCT4 (unknown origin) expressed in HEK cells assessed as increase in luminescence signal measured after 24 hrs by luciferase reporter assay; type: cell-based
[5] = biological target: POU domain, class 5, transcription factor 1 (Homo sapiens) (UniProt Q01860); experiment: Induction of OCT4 (unknown origin) expressed in human NCCIT reporter cells assessed as increase in luminescence signal measured after 24 hrs by luciferase reporter assay; type: cell-based
Albumin = Albumin (Homo sapiens, UniProt P02768); experiment: Protein binding in serum albumin (unknown origin); type: ADME; details: read-out: PB (converted)
[6] = biological target: Splicing factor 3B subunit 1 (Homo sapiens) (UniProt O75533); experiment: Thermal stabilization of SF3B1 (unknown origin) assessed as increase in denaturation temperature by thermal shift assay (reference value: 58.5+/-2.05 degreeC)
[7] = Membrane permeability of the compound; type: ADME
Drosophila [8] = experiment: Anti-aging activity in Drosophila; type: functional, organism-based
Fibroblast [9] = experiment: Reprogramming activity in human Fibroblast cells harbouring LTR7-GFP assessed as induction of iPSCs from somatic cells by measuring TRA-160 positive colonies at 5 uM measured after 7 days in presence of SOX2/KLF4/L-MYC/LIN28 (SKML); type: functional, cell-based; details: time 7.0 day
Caenorhabditis elegans [10] = experiment: Anti-aging activity in wild type Caenorhabditis elegans N2 assessed as increase in survival rate measured after 48 hrs under oxidative stress; type: functional, organism-based
NCCIT [11] = experiment: Upregulation of STAT3 expression in human NCCIT cells at 5 to 10 uM measured after 2 days by qRT-PCR analysis; type: functional, cell-based; details: dose 5-10 µM, time 2.0 day
Caenorhabditis elegans [12] = experiment: Anti-aging activity in wild type Caenorhabditis elegans N2 assessed as increase in life extension at 0.5 uM measured upto 40 days; type: functional, organism-based; details: time <= 40.0 day
NCCIT [13] = experiment: Upregulation of E-cadherin level in human NCCIT cells by fluorescence-activated cell sorter analysis; type: functional, cell-based
NCCIT [14] = experiment: Upregulation of REX1 expression in human NCCIT cells at 5 to 10 uM measured after 2 days by qRT-PCR analysis; type: functional, cell-based; details: dose 5-10 µM, time 2.0 day
NCCIT [15] = experiment: Upregulation of E-cadherin expression in human NCCIT cells at 5 to 10 uM measured after 2 days by qRT-PCR analysis; type: functional, cell-based; details: dose 5-10 µM, time 2.0 day
Fibroblast [16] = experiment: Reduction in OCT4 expression in SF3B1 siRNA human Fibroblast cells harbouring LTR7-EGFP; type: functional, cell-based
HFF [17] = experiment: Effect on OCT expression in human HFF cells; type: functional, cell-based
Drosophila [18] = experiment: Anti-aging activity in Drosophila assessed as increase in life span at 20 uM measured upto 60 days relative to control; type: functional; details: 1440 h, time <= 60 day
HFF [19] = experiment: Effect on SOX2 expression in human HFF cells; type: functional, cell-based
NCCIT [20] = experiment: Upregulation of SOX2 expression in human NCCIT cells at 5 to 10 uM measured after 2 days by qRT-PCR analysis; type: functional, cell-based; details: dose 5-10 µM, time 2.0 day
Drosophila [21] = experiment: Anti-aging activity in Drosophila assessed as increase in life span at early adulthood at 20 uM measured upto 60 days relative to control; type: functional; details: 1440 h, time <= 60 day
NCCIT [22] = experiment: Upregulation of OCT4 level in human NCCIT cells by fluorescence-activated cell sorter analysis; type: functional, cell-based
[23] = Upregulation of NANOG expression in human NCCIT cells assessed as fold increase at 5 to 10 uM measured after 2 days by qRT-PCR analysis; type: functional; details: dose 5-10 µM; time 2 day
Caenorhabditis elegans [24] = experiment: Anti-aging activity in Caenorhabditis elegans […] assessed as induction of daf-16 nuclear translocation measured after 24 hrs; type: functional, organism-based
NCCIT [25] = experiment: Upregulation of SOX2 level in human NCCIT cells by fluorescence-activated cell sorter analysis; type: functional, cell-based
Fibroblast [26] = experiment: Upregulation of OCT4 level in human Fibroblast cells measured after 5 days by immunoblot analysis; type: functional, cell-based; details: dose 5-50 µM, time 5.0 day
[27] = Upregulation of OCT4 expression in human NCCIT cells assessed as fold increase at 5 to 10 uM measured after 2 days by qRT-PCR analysis; type: functional; details: dose 5-10 µM; time 2 day
NCCIT [28] = experiment: Upregulation of OCT4 level in human NCCIT cells measured after 5 days by immunoblot analysis; type: functional, cell-based; details: dose 1-50 µM, time 5.0 day
[29] = biological target: POU domain, class 5, transcription factor 1 (Homo sapiens) (UniProt Q01860); experiment: Induction of OCT4 in human HFF cells measured after 8 hrs; type: cell-based; details: filed as activator
HFF [30] = experiment: Effect on NANOG expression in human HFF cells; type: functional, cell-based
Drosophila [31] = experiment: Anti-aging activity in Drosophila assessed as increase in life span at late adulthood at 20 uM measured upto 60 days; type: functional, organism-based; details: time <= 60.0 day
NCCIT [32] = experiment: Upregulation of NANOG level in human NCCIT cells by fluorescence-activated cell sorter analysis; type: functional, cell-based

Chain of Homeobox protein NANOG (Homo sapiens) (Q9H9S0 whole entry, the tested form may be a part): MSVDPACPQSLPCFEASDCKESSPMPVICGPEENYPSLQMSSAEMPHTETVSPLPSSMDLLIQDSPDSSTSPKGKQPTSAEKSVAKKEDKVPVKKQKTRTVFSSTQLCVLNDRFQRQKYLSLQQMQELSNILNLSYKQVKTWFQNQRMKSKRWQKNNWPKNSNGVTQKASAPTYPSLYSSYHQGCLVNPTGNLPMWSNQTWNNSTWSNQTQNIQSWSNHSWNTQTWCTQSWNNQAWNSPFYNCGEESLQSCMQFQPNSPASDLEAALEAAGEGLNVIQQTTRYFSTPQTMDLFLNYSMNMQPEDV
Chain of POU domain, class 5, transcription factor 1 (Homo sapiens) (Q01860 whole entry, the tested form may be a part): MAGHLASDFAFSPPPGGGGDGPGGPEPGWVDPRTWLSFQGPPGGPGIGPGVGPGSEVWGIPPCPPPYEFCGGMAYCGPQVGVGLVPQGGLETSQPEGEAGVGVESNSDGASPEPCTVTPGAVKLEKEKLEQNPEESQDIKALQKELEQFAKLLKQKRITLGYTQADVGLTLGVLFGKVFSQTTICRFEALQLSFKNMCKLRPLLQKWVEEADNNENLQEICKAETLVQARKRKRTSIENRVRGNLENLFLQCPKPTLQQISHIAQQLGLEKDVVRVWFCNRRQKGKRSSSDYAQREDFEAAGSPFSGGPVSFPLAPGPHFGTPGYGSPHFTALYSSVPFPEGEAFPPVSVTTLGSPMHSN
Chain of Splicing factor 3B subunit 1 (Homo sapiens) (O75533 whole entry): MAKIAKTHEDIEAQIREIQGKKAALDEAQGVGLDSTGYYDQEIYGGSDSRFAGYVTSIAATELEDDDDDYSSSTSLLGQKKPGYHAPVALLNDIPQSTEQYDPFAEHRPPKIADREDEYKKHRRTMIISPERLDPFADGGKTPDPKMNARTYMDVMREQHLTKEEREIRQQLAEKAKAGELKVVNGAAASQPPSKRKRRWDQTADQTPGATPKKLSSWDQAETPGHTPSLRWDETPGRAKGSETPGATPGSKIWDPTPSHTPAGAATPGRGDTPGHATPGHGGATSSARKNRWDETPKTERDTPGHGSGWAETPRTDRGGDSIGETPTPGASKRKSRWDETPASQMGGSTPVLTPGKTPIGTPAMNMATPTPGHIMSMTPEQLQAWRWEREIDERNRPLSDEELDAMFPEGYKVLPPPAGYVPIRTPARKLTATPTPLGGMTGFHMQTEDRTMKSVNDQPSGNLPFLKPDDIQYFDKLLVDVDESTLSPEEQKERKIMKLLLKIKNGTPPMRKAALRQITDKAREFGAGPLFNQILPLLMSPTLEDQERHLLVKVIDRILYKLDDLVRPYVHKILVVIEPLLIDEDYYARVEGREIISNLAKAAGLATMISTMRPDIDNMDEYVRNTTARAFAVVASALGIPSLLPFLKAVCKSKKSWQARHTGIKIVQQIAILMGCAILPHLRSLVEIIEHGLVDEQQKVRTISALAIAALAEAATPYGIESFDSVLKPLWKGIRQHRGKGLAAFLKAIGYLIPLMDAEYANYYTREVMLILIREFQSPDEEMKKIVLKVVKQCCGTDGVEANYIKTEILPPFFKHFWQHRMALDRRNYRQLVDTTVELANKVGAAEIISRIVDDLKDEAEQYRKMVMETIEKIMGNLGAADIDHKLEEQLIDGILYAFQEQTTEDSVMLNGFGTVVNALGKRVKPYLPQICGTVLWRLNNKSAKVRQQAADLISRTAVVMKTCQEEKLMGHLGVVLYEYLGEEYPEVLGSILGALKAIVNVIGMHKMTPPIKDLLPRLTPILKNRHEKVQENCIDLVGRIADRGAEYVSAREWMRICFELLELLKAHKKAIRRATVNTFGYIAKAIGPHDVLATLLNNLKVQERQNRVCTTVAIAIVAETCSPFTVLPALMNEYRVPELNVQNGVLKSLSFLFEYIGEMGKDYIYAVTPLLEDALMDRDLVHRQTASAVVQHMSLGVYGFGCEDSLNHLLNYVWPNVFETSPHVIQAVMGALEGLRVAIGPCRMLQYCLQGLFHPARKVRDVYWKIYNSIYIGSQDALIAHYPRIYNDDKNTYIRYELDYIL
Chain of Albumin (P02768 whole entry): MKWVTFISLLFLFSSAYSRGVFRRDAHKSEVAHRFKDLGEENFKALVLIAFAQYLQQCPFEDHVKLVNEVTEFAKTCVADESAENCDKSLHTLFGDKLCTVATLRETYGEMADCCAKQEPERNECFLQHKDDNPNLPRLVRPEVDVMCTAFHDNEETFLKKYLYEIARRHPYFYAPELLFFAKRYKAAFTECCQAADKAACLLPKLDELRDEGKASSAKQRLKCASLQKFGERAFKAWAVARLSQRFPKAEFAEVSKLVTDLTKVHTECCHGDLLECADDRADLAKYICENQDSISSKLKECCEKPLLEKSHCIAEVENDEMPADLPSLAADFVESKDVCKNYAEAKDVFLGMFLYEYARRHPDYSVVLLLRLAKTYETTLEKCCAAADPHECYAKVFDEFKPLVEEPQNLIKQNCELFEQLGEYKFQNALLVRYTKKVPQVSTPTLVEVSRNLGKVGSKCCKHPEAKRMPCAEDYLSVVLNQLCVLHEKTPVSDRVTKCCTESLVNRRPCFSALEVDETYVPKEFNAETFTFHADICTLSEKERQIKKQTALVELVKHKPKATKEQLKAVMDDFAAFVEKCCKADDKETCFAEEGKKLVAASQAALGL

CCOC(=O)c1csc(Nc2ccc(Br)cc2C)n1
pIC50 (NCCIT [1]): < 4.70
IC50 at 48 h [2]: > 20 µM
Activity [3]: inactive
Activity ([4]; filed as activator): Active
Activity [5]: inactive

CCOC(=O)c1csc(Nc2ccc(O)cc2)n1
pIC50 (NCCIT [1]): < 4.70
IC50 at 48 h [2]: > 20 µM
Activity [3]: inactive
Activity [4]: inactive
Activity [5]: inactive

Cc1ccc(Nc2nc(C(C)(C)C)cs2)cc1
pIC50 (NCCIT [1]): < 4.70
IC50 at 48 h [2]: > 20 µM

CCOC(=O)c1csc(Nc2ccc(Cl)cc2)n1
fraction unbound (Albumin): 0.1
T [6]: 64.7 °C
permeability [7]: 70%
Activity [3]: inactive
Activity (Drosophila [8]): inactive
Activity [4]: inactive
Activity [5]: inactive
Activity (Fibroblast [9]): Active

Cc1ccc(Nc2nc(C(C)(C)C)cs2)c(C)c1
pIC50 (NCCIT [1]): < 4.70
IC50 at 48 h [2]: > 20 µM

CCOC(=O)c1csc(Nc2cc(F)ccc2F)n1
pIC50 (NCCIT [1]): < 4.70
IC50 at 48 h [2]: > 20 µM
Activity [3]: inactive
Activity ([4]; filed as activator): Active
Activity [5]: inactive

CCOC(=O)c1csc(Nc2ccc(C)cc2)n1
pIC50 (NCCIT [1]): < 4.70
IC50 at 48 h [2]: > 20 µM
Activity [3]: inactive
Activity [4]: inactive
Activity [5]: inactive

CCOC(=O)c1csc(Nc2ccc(C#N)cc2)n1
pIC50 (NCCIT [1]): < 4.70
IC50 at 48 h [2]: > 20 µM
Activity [3]: inactive
Activity [4]: inactive
Activity [5]: inactive

CCOC(=O)c1csc(Nc2ccc(C(=O)O)cc2)n1
pIC50 (NCCIT [1]): < 4.70
IC50 at 48 h [2]: > 20 µM
Activity ([3]; filed as activator): Active
Activity ([4]; filed as activator): Active
Activity ([5]; filed as activator): Active
Activity (Fibroblast [9]): Active

Cc1cccc(Nc2nc(C(C)(C)C)cs2)c1C
Activity (Caenorhabditis elegans [10]): Active
Activity (NCCIT [11]): Active
Activity (Caenorhabditis elegans [12]): Active
Activity (NCCIT [13]): Active
Activity (NCCIT [14]): Active
Activity (NCCIT [15]): Active
Activity (Fibroblast [16]): Active
T [6]: 64.9 °C
pIC50 (NCCIT [1]): 4.96
Activity (HFF [17]): Active
IC50 at 48 h [2]: > 20 µM
Activity ([3]; filed as activator): Active
ILS at 20 µM (Drosophila [18]): 5%
Activity (HFF [19]): Active
Activity (NCCIT [20]): Active
ILS at 20 µM (Drosophila [21]): 10%
Activity (NCCIT [22]): Active
fold change (FC) [23]: 30
Activity (Caenorhabditis elegans [24]): Active
Activity (NCCIT [25]): Active
Activity (Fibroblast [26]): Dose-Dependent Effect
Activity ([4]; filed as activator): Active
Activity ([5]; filed as activator): Active
Activity (Fibroblast [9]): Active
fold change (FC) [27]: 3
Activity (NCCIT [28]): Dose-Dependent Effect
Activity [29]: Active
Activity (HFF [30]): Active
ILS (Drosophila [31]): inactive
Activity (NCCIT [32]): Active

CCOC(=O)c1csc(Nc2ccc(F)cc2F)n1
pIC50 (NCCIT [1]): < 4.70
IC50 at 48 h [2]: > 20 µM
Activity [3]: inactive
Activity ([4]; filed as activator): Active
Activity [5]: inactive

Cc1ccccc1Nc1nc(C(C)(C)C)cs1
pIC50 (NCCIT [1]): 5.03
IC50 at 48 h [2]: > 20 µM

CCOC(=O)c1csc(Nc2ccc(OC)cc2)n1
pIC50 (NCCIT [1]): < 4.70
IC50 at 48 h [2]: > 20 µM
Activity [3]: inactive
Activity [4]: inactive
Activity [5]: inactive
